Here are results for two molecules from patent US20100093642A1, “NOVEL POLYPEPTIDES” (priority 2006, published 2010).

Residues, ends and D or L forms follow the SMILES beside them.

Test [1] has as its system Salmonella enterica serovar typhimurium (ATCC 14028). The experiment in a line: Bacterial cell viability, lux luminescence and OD600, with or without LPS. Format: cell-based. The following applies: co-incubation with 2.5 μM Aeromonas salmonicida LPS. The text has this:
(§1) To evaluate the effect of antimicrobial peptides on the viability of bacteria in a fast and reliable manner we used the lux CDABE operon from Photorhabdus luminescens as a reporter system in gram negative test bacteria and the modified luxABCDE operon in S. aureus (Vesterlund et al. 2004). Bacterial bioluminescence is directly dependent on metabolic activity, since reduction equivalents are needed to drive light emission. Any form of interruption of bacterial cell integrity or metabolism will therefore be detected as a reduction in light emission.
(§2) For the assay we used S. aureus (RN4220), E. coli K-12 and Salmonella enterica serovar typhimurium (ATCC 14028) transformed with the respective lux-operon containing plasmids (Vesterlund et al. 2004).
(§3) For each experiment a fresh colony was picked from Luria-Bertani plates supplemented with 10 μg/ml of erythromycin in case of S. aureus and with 100 μg/ml of ampicillin in case of E. coli and S. enterica serovar Typhimurium. Each colony was suspended in 5 ml of Müller-Hinton medium with appropriate antibiotics. The culture was incubated over night at 37° C. in a shaking incubator. The next morning 0.5 ml of this culture was transferred to 30 ml fresh MH medium in an Erlenmeyer-flask supplemented with the respective antibiotic. The flask was incubated (200 rpm shaking; 37° C.) until an OD600 of 0.5-0.8 was reached. The culture was then diluted to an OD600 of about 0.02-0.03 before transfer to the 96 well opaque plates with optical bottom (Packard ViewPlate) used for the assay.
The synthesized peptides were dissolved in water and aliquots frozen at −18° C. until use. Twofold dilutions of test peptides (final concentrations ranging from 0.31 to 80 μM) were directly prepared in 96 well microtiter plates in a volume of 10 μl in water. 90 μl is of indicator bacteria in MH medium were added directly to the prepared and pre-warmed (30 minutes at 37° C.) plate before starting the measurement in a Victor multiplate reader (Perkin Elmer) at 37° C. Both OD600 and luminescence in counts per second (cps) were followed over 5 hours in measuring intervals of 5 minutes. The plates where shaken before each measurement (20 sec.; 5 mm orbital shaking; 10 sec waiting). The growth curves and light emission curves were drawn and evaluated to determine the MIC for each indicator strain. The MIC was defined as the concentration of test compound causing more than 50% reduction in bioluminescence (cps) or optical density (OD600) after 5 hours, compared to the growth control. Cecropin P1 was used as positive control. The results (table 14a-b) confirm the results obtained in example 2, showing a pronounced antibacterial effect of the longest peptide fragments. […] The partial peptides P17 HC (1-20), both bromated and unbromated, inhibit growth only in higher concentrations.
A second plate with an otherwise similar setup (as described for the luminescence assay in example 3) was prepared, but with addition of Aeromonas salmonicida LPS to the peptide dilutions before pre-warming. The LPS end concentration in each well was approximately 2.5 μM.

The subject of a further test is E. coli K-12. The test is described as above. Format: cell-based, Escherichia coli. The following applies: co-incubation with 2.5 μM Aeromonas salmonicida LPS.
Text: as §1, §2, §3
The synthesized peptides were dissolved in water and aliquots frozen at −18° C. until use. Twofold dilutions of test peptides (final concentrations ranging from 0.31 to 80 μM) were directly prepared in 96 well microtiter plates in a volume of 10 μl in water. 90 μl is of indicator bacteria in MH medium were added directly to the prepared and pre-warmed (30 minutes at 37° C.) plate before starting the measurement in a Victor multiplate reader (Perkin Elmer) at 37° C. Both OD600 and luminescence in counts per second (cps) were followed over 5 hours in measuring intervals of 5 minutes. The plates where shaken before each measurement (20 sec.; 5 mm orbital shaking; 10 sec waiting). The growth curves and light emission curves were drawn and evaluated to determine the MIC for each indicator strain. The MIC was defined as the concentration of test compound causing more than 50% reduction in bioluminescence (cps) or optical density (OD600) after 5 hours, compared to the growth control. Cecropin P1 was used as positive control. […]
A second plate with an otherwise similar setup (as described for the luminescence assay in example 3) was prepared, but with addition of Aeromonas salmonicida LPS to the peptide dilutions before pre-warming. […]

Test [2] concerns human breast malignant carcinoma cell line (MT-1). Format: cell-based. The following applies: 24 h. Here is the method: The cytotoxic effects of the peptides on different human tumour cells were measured using the MTT colorimetric assay (Mosmann, 1983). MIT (3-(4-5-dimethylthiazol-2-yl)-2,5-diphenyl tetrazolium bromide) is a soluble tetrazolium salt yielding a yellow solution when prepared in media or salt solutions lacking phenol red. Dissolved MIT is converted to an insoluble purple formazan by cleavage of the tetrazolium ring by dehydrogenase enzymes. This water insoluble formazan can be solubilized using isopropanol or other solvents and the dissolved material is measured spectrophotometrically. The absorbance was measured as a function of concentration of converted dye. […]
The tumour cell lines FemX, HT-29, MT-1 were maintained in RPMI-1640 medium supplemented with 10% heat inactivated FBS and 1% L-glutamine in a humidified atmosphere of 5% CO2 at 37° C. […] Cells to be used in the assay were grown to a minimum of 75% confluency, trypsinated and split to single cell suspension, counted and centrifuged at 1500 rpm for 10 min. […]
The cytotoxicity was measured using the MTT method (Mosmann, 1983), with minor modifications. […] The plate was placed on a shaker for 1 hour at room temperature and read spectrophotometrically at 590 nm in a microtiter plate reader (DTX880 Multimode Detector, Beckman Coulter). […]

Turning to `CC[C@H](C)[C@H](NC(=O)CNC(=O)[C@H](CO)NC(=O)[C@H](CCCCN)NC(=O)[C@@H](NC(=O)[C@H](C)NC(=O)[C@H](Cc1c[nH]cn1)NC(=O)[C@H](CO)NC(=O)[C@@H](NC(=O)[C@H](CCCCN)NC(=O)[C@H](Cc1c[nH]cn1)NC(=O)[C@H](Cc1ccccc1)NC(=O)[C@@H](NC(=O)[C@H](CCCCN)NC(=O)[C@H](CCCCN)NC(=O)[C@H](Cc1ccccc1)NC(=O)C(Cc1c[nH]c2ccc(Br)cc12)NC(=O)CN)[C@@H](C)O)C(C)C)C(C)C)C(=O)N[C@@H](Cc1c[nH]cn1)C(=O)N[C@@H](C)C(=O)O` (some centres unmarked) [P17 HC-Br (1-20)] (HELM PEPTIDE1{G.[O=C(C(Cc1c[nH]c2ccc(Br)cc12)N[*:1])[*:2]].F.K.K.T.F.H.K.V.S.H.A.V.K.S.G.I.H.A}$$$$V2.0; N-terminus and C-terminus assumed), the “MIC, more than 50% reduction in optical density, S. enterica, P + LPS” value in test [1] (OD600, 5 hours) amounted to 10 µM. Further, the “MIC, more than 50% reduction in luminescence, S. enterica, P + LPS” value in test [1] (luminescence (cps), 5 hours) came out at 10 µM. Further, the “MIC, more than 50% reduction in optical density, E. coli, P + LPS” value with E. coli K-12 (OD600, 5 hours) worked out at 40 µM. The “MIC, more than 50% reduction in luminescence, E. coli, P + LPS” value in the test on E. coli K-12 (luminescence (cps), 5 hours) is 20 µM.

As a reminder, the IC50 is the concentration at which inhibition is half-maximal. For the molecule `CC[C@H](C)[C@H](NC(=O)CNC(=O)[C@H](CO)NC(=O)[C@H](CCCCN)NC(=O)[C@@H](NC(=O)[C@H](C)NC(=O)[C@H](Cc1c[nH]cn1)NC(=O)[C@H](CO)NC(=O)[C@@H](NC(=O)[C@H](CCCCN)NC(=O)[C@H](Cc1c[nH]cn1)NC(=O)[C@H](Cc1ccccc1)NC(=O)[C@@H](NC(=O)[C@H](CCCCN)NC(=O)[C@H](CCCCN)NC(=O)[C@H](Cc1ccccc1)NC(=O)C(Cc1c[nH]c2ccc(Br)cc12)NC(=O)CN)[C@@H](C)O)C(C)C)C(C)C)C(=O)N[C@@H](Cc1c[nH]cn1)C(=O)N[C@@H](C)C(=O)NCC(=O)N[C@@H](CCC(N)=O)C(=O)N[C@@H](CCCNC(=N)N)C(=O)NCC(=O)N[C@@H](CS)C(=O)N[C@@H](CO)C(=O)N[C@@H](C)C(=O)N[C@@H](CC(C)C)C(=O)NCC(=O)N[C@@H](Cc1ccccc1)C(=O)O` (some centres unmarked) [P17 HC-Br] (HELM PEPTIDE1{G.[O=C(C(Cc1c[nH]c2ccc(Br)cc12)N[*:1])[*:2]].F.K.K.T.F.H.K.V.S.H.A.V.K.S.G.I.H.A.G.Q.R.G.C.S.A.L.G.F}$$$$V2.0), it took 20 µM to reach half-maximal inhibition in test [2] (IC50).
